Patent publication EP0799174B1, “BIOCIDAL ALCOHOLS, THEIR PRODUCTION AND THEIR USE” (SCHÜLKE & MAYR GMBH, priority 1994, dated 1996)

Assays:
[1] = tested on: Mycobacterium terrae ATCC 15755; assay: Germ carrier experiment with standard cotton; format: cell-based; set-up: key: E: individual colonies; M: several colonies; +: weak growth; ++: moderate growth; +++: heavy growth; ++++: very heavy growth; ∞: lawn growth; settings: Rewopal MPG 40 25.0%, aromatic alcohol 2.0 %, dem. water to 100
Method: • Rewopal MPG 40 25.0% • aromatic alcohol 2.0 % • dem. water to 100
The bacteria are elutriated with 5 ml CSL from a 24 h-old (37°C) culture onto CSA plates measuring approx. 9 cm in diameter, the suspension being diluted with CSL if necessary. The number of CFU/ml is to be determined using surface culture. It should be > 10^9/ml.
The sterilized and dried germ carriers are introduced into the bacterial suspension and left in it for 15 minutes, during which they are turned over twice.
A number (4) of contaminated, thoroughly impregnated germ carriers, corresponding to the proposed removal times - 15, 30, 60 and 120 minutes - is placed in a small dish and 10 ml of the disinfectant solution to be tested in WSH are poured over them. Air bubbles are to be removed by repeated turning of the germ carriers.
After the corresponding action times, the germ carriers are to be removed from the disinfectant solution, and after rinsing twice in each case for 1 min in 10 ml ML solution (see Appendix) to which the deactivating substances were optionally added, the germ carriers are placed onto the surface of a Löwenstein-Jensen nutrient medium with tweezers and moved backwards and forwards 3 to 4 times using light pressure. After inoculating the nutrient medium surface the small cloth is to remain lying directly above the condensed water level of the nutrient medium.
Germ carriers pre-treated in the same way, but kept in WSH for 120 minutes instead of in disinfectant solution are to be inoculated as a control. The inoculated tubes are incubated at 37°C for 3 weeks.

[2] = tested on: Microsporon luteus ATCC 15442; assay: Skin antiseptic a): test on skin of subjects, contamination after 1 h, ring method; format: in vivo; settings: aromatic alcohol 1.0% in 1-propanol 30.0%, 2-propanol 45.0%, 0.2 ml on 10cm^2 skin, germs removed after 15 minutes, average of all 10 subjects
Method: • 1-propanol 30.0% • 2-propanol 45.0% • aromatic alcohol 1.0% • dem. water to 100 Test germ: Microsporon luteus ATCC 15442 Test method: Apply 0.2 ml preparation to 10cm^2 skin, allow to dry, cover with TEGADERM® film and leave to work for 1 h, contaminate with 0.1 ml germ suspension, remove after 15 minutes with ring method Reference: Control against Neo-Kodan® Number of subjects: 10 subjects

[3] = tested on: Penicillium funiculosum ATCC 36839; assay: MIC values, water-soluble (inhibition titre, dilution series in CSL); format: cell-based
[4] = tested on: Microsporon gypseum; assay: Foot spray: agar diffusion test; format: cell-based; settings: foot spray formula with aromatic alcohol 0.2 %
Source text: (§1) Formula: • 2-propanol 40.0% • aromatic alcohol 0.2 % • allantoin 0.5 % • dem. water to 100 Test germs: special skin fungi such as Trichophyton rubrum, Trichophyton mentagrophytes (ATCC 9533), Microsporon gypseum Test method: Determination of the minimum inhibition concentration (method see under 1.) Data in % Test germs: special skin fungi such as Trichophyton rubrum, Trichophyton mentagrophytes, Microsporon gypseum Test method: Agar diffusion test Data as millimetres inhibition zone

[5] = tested on: Trichophyton rubrum; assay: Foot spray: agar diffusion test; format: cell-based; settings: foot spray formula with aromatic alcohol 0.2 %
Source text: as §1

[6] = tested on: Trichophyton mentagrophytes; assay: Foot spray: agar diffusion test; format: cell-based; settings: foot spray formula with aromatic alcohol 0.2 %
Source text: as §1

[7] = tested on: Proteus vulgaris NCTC 4635; assay: MIC values, water-soluble (inhibition titre, dilution series in CSL); format: cell-based
[8] = tested on: Candida albicans ATCC 10231; assay: as above; format: cell-based
Method: (§2) Standard formulation: • Rewopal MPG 40 25.0 g • aromatic alcohol 10 mmol • dem.* water to 100 g • lactic acid for adjusting the pH value to 7.0 q.s.
(§3) In sterile test tubes, 5 ml each of the dilutions of the disinfectant in WSH (water of standardized hardness) are mixed with 5 ml double-concentrated casein peptone soybean flour peptone solution (CSL) or CSL and deactivating substances.
(§4) To determine the bacteriostatic action on Staphylococcus aureus and Proteus mirabilis the tubes are inoculated by adding 0.1 ml of a CSL culture diluted 1:10 with CSL and incubated for 24 h at 37°C.
(§5) To test the fungistatic action, 0.1 ml of an undiluted CSL culture of Candida albicans which has been incubated at 37°C for 72 h is used in each case. Evaluation takes place after 72 h at 37°C.
(§6) The highest dilution of the preparation in CSL or CSL and deactivating substances that still suppresses growth of the test germs after […] incubation serves as the measure of the multiplication-inhibiting action (inhibition titre).
(§7) In the case of the disinhibition tests, the culture media are to be adjusted to a pH value of 7.0 ± 0.2 according to the state of the disinfectant.
(§8) Standard formulation: • aromatic alcohol 5.0 % • Brij 58 5.0 % • 1,3-butanediol to 100 • Test germs: see above • Test method: see above

[9] = tested on: Staphylococcus aureus ATCC 6538; assay: as above; format: cell-based
Method: as §2, §3, §4, §5, §6, §7, §8

[10] = tested on: Aspergillus niger ATCC 6275; assay: as above; format: cell-based
[11] = tested on: Microsporon gypseum; assay: Foot spray: minimum inhibition concentration; format: cell-based; settings: foot spray formula: 2-propanol 40.0%, aromatic alcohol 0.2 %, allantoin 0.5 %, dem. water to 100
Source text: (§9) Formula: • 2-propanol 40.0% • aromatic alcohol 0.2 % • allantoin 0.5 % • dem. water to 100 Test germs: special skin fungi such as Trichophyton rubrum, Trichophyton mentagrophytes (ATCC 9533), Microsporon gypseum Test method: Determination of the minimum inhibition concentration (method see under 1.) Data in %

[12] = tested on: Trichophyton mentagrophytes (ATCC 9533); assay: Foot spray: minimum inhibition concentration; format: cell-based; settings: foot spray formula: 2-propanol 40.0%, aromatic alcohol 0.2 %, allantoin 0.5 %, dem. water to 100
Source text: as §9

[13] = tested on: Trichophyton rubrum; assay: Foot spray: minimum inhibition concentration; format: cell-based; settings: foot spray formula: 2-propanol 40.0%, aromatic alcohol 0.2 %, allantoin 0.5 %, dem. water to 100
Source text: as §9

[14] = Skin antiseptic a): suspension test according to DGHM; format: cell-based; settings: formulation with 1.0% aromatic alcohol in 1-propanol 30.0%, 2-propanol 45.0%; concentration and time
[15] = standard formulation: Rewopal MPG 40 25.0 g, aromatic alcohol 10 mmol, dem. water to 100 g, pH 7.0
[16] = standard formulation: aromatic alcohol 5.0 %, Brij 58 5.0 %, 1,3-butanediol to 100

SMILES	growth of M. terrae after action time 15' [1]	growth of M. terrae after action time 30' [1]	growth of M. terrae after action time 60' [1]	growth of M. terrae after action time 120' [1]	Average value of RF (reduction factors) [2]	MIC (minimum inhibiting concentration) P. funi. [3, 15]	inhibition zone, M. gypseum ([4]; use concentration 100%)	inhibition zone, T. rubrum ([5]; use concentration 100%)	inhibition zone, T. mentagrophytes ([6]; use concentration 100%)	MIC (minimum inhibiting concentration) P. vulgaris [7, 15]	MIC (minimum inhibiting concentration) C. albicans [8, 15]	MIC (minimum inhibiting concentration) S. aureus [9, 15]	MIC (minimum inhibiting concentration) A. niger [10, 15]	minimum inhibition concentration, M. gypseum [11]	minimum inhibition concentration, T. mentagrophytes [12]	minimum inhibition concentration, T. rubrum [13]	also measured
OCCCc1ccccc1 [Alcohol 1, 3-phenyl propanol, reference compound]	++++	++++	+++	+++	0 log stages	313 μmol/100 ml test solution	0 mm	0 mm	0 mm	625 μmol/100 ml test solution	625 μmol/100 ml test solution	1,250 μmol/100 ml test solution	625 μmol/100 ml test solution	6.25%	6.25%	6.25%	MIC (minimum inhibiting concentration) P. funi. [3, 16]: 313 µmol/100 ml test solution; MIC (minimum inhibiting concentration) P. vulgaris [7, 16]: 625 µmol/100 ml test solution; MIC (minimum inhibiting concentration) C. albicans [8, 16]: 625 µmol/100 ml test solution; MIC (minimum inhibiting concentration) S. aureus [9, 16]: 1,250 µmol/100 ml test solution; MIC (minimum inhibiting concentration) A. niger [10, 16]: 625 µmol/100 ml test solution
CCCCCC(=Cc1ccccc1)CO [Alcohol 8, α-amyl cinnamyl alcohol]	+++	++	+	E	1.9 log stages	313 μmol/100 ml test solution	19 mm	23 mm	22 mm	1,250 μmol/100 ml test solution	313 μmol/100 ml test solution	39 μmol/100 ml test solution	156 μmol/100 ml test solution	1.56%	1.56%	1.56%	inhibition zone, M. gypseum ([4]; use concentration 50%): 10 mm; inhibition zone, T. rubrum ([5]; use concentration 50%): 14 mm; inhibition zone, T. mentagrophytes ([6]; use concentration 50%): 14 mm; values in the suspension test according to DGHM [14]: 50%, 30 seconds
